The species entered for one data set is Homo sapiens. As to the kind of experiment: Inhibition of mitochondrial complex I (unknown origin) at 1 uM incubated for 15 mins by microplate reader analysis relative to control.
Data set [1] in a line: Inhibition of mitochondrial complex I (unknown origin) incubated for 15 mins by microplate reader analysis. On the set-up: species or system Homo sapiens.
A short description of data set [2]: Apparent permeability across basolateral side to apical in human Caco-2 cells incubated for 120 mins by LC-MS/MS analysis. It is filed as ADME, cell-based.
Data set [3] in a line: Apparent permeability across apical to basolateral side in human Caco-2 cells incubated for 120 mins by LC-MS/MS analysis. It is filed as ADME, cell-based. A general note: Passage across Caco-2 layers is used to estimate intestinal permeability.
In data set [4] the test system is HCT-116. As to the kind of experiment: Induction of mitochondrial membrane potential depolarization in human HCT-116 cells at 2 nM incubated for 24 hrs by JC-1 staining based flow cytometry analysis. It is filed as functional.
Data set [5] is described as follows: Efflux ratio of apparent permeability across basolateral to apical membrane to apical to basolateral membrane in human Caco-2 cells incubated for 120 mins by LC-MS/MS analysis. It is filed as ADME, cell-based.
In another data set the test system is NCM460. Description: Antiproliferative activity against human NCM460 cells assessed as inhibition of cell growth incubated for 96 hrs by MTT assay. It is filed as functional, cell-based. Particulars: NCM460, 96 h. (Tetrazolium assays rely on reduction of a dye to a coloured formazan, in cell work by metabolically active cells.)
Data set [6] concerns KG-1. Description: Antiproliferative activity against human KG-1 cells assessed as inhibition of cell growth incubated for 96 hrs by MTT assay. The settings on record: KG-1, 96 h. It is filed as functional, cell-based.
For data set [7], the system named is HCT-116. Description: Antiproliferative activity against human HCT-116 cells assessed as inhibition of cell growth incubated for 96 hrs by MTT assay. The settings on record: HCT-116, 96 h. It is filed as functional, cell-based.
For data set [8], the system named is KG-1. Description: Induction of ROS generation in human KG-1 cells at 32 nM measured for 30 mins by DCFDA-staining based flow cytometry analysis. It is filed as functional, cell-based.

The values below come from ChEMBL document CHEMBL5620406, “Synthesis and biological evaluation of novel pyrazole amides as potent mitochondrial complex I inhibitors” (Eur J Med Chem, 2023).

The term inhibition denotes the share of the control response that was lost under treatment. Broadly, the IC50 is the midpoint of a concentration-inhibition curve. The Papp B→A is how fast a substance crosses the layer from the basolateral side. As usually defined, the Papp A→B is how fast a substance crosses the layer from the apical side. What is called efflux ratio is a quotient of directional permeabilities that is used to spot active efflux.

The structures appear in SMILES notation. The source made the active and inactive calls. The calls are words filed in the database; no cut-off is given here.

With `Cc1cc(C(=O)Nc2ccccc2OC(F)(F)F)nn1Cc1cccc(N2CCN(C(=O)C3CC3)CC2)c1`, in the data set filed under Homo sapiens, the inhibition was 1.87%.
In turn, `Cc1cccc(NC(=O)c2cc(C)n(Cc3cccc(N4CCN(C(=O)C5CC5)CC4)c3)n2)c1` registered an inhibition in the data set filed under Homo sapiens of 6.44%.
In turn, `CS(=O)(=O)C1CCN(c2cccc(Cn3nc(C(=O)Nc4ccc(OC(F)(F)F)cc4)c4c5nn(c6ccccc56)c43)c2)CC1` came in with an inhibition in the data set filed under Homo sapiens of 1.12%. In addition, the concentration for half-maximal inhibition (IC50) in [1] worked out at 91.3 µM.
In the data set listed under Homo sapiens, `Cc1cc(C(=O)Nc2cc(F)cc(F)c2)nn1Cc1cccc(N2CCN(C(=O)C3CC3)CC2)c1` displayed an inhibition of 9.58%.
As for `Cc1nc(-c2nc(-c3ccc(OC(F)(F)F)cc3)no2)nn1Cc1cccc(N2CCC(S(C)(=O)=O)CC2)c1`, the apparent permeability from basolateral to apical (Papp B→A) at 2 h in data set [2] amounted to 3.33 ×10⁻⁶ cm/s. Besides, in data set [3], the Papp A→B at 2 h was 4.86 ×10⁻⁶ cm/s. Besides, in the data set with HCT-116 [4], the Activity worked out at 21.1%. The efflux ratio at 2 h in [5] came to 0.68. Moreover, in the data set filed under Homo sapiens, the inhibition is 32.7%. Further, the half-inhibitory concentration (IC50) was > 1 µM with NCM460, 0.0638 µM in the data set with KG-1 [6], 115 µM in data set [1] and 0.00963 µM in the data set with HCT-116 [7]. The result with KG-1 [8] was Active.
As to `Cc1cc(C(=O)Nc2ccc(OC(F)(F)F)cc2)nn1Cc1cccc(N(C)C2CCOCC2)c1`, in the data set filed under Homo sapiens, the inhibition came to 13.5%.
Compound `Cc1ccccc1Cn1nc(C(=O)Nc2ccc(OC(F)(F)F)cc2)cc1C` registered an inhibition in the data set filed under Homo sapiens of 1.7%.
With `CS(=O)(=O)C1CCN(c2cccc(Cn3nc(C(=O)Nc4ccc(OC(F)(F)F)cc4)c4c5nn(c6c5COCC6)c43)c2)CC1`, the inhibition in the data set listed under Homo sapiens amounted to 13.2%. Besides, the concentration for half-maximal inhibition (IC50) in data set [1] came to 101 µM.
With `Cc1cc(C(=O)Nc2cccc(F)c2)nn1Cc1cccc(N2CCN(C(=O)C3CC3)CC2)c1`, the inhibition in the data set filed under Homo sapiens was found to be 1.54%.
In the case of `CC(C)(C)c1cc(C(=O)Nc2ccc(OC(F)(F)F)cc2)nn1Cc1cccc(N2CCC(S(C)(=O)=O)CC2)c1`, the inhibition in the data set listed under Homo sapiens amounted to 38.7%. For the same compound, in data set [1], inhibition was half-maximal at 1.36 µM (IC50).
In the data set filed under Homo sapiens, `Cc1cc(C(=O)Nc2ccccc2F)nn1Cc1cccc(N2CCN(C(=O)C3CC3)CC2)c1` registered an inhibition of 1.72%.
Consider `Cc1cc(C(=O)Nc2ccc(F)cc2)nn1Cc1cccc(N2CCN(C(=O)C3CC3)CC2)c1`, for which, in the data set listed under Homo sapiens, the inhibition was 8.24%.
Regarding `Cc1cc(C(=O)Nc2ccc(OC(F)(F)F)cc2)nn1Cc1ccc(N2CCC(S(C)(=O)=O)CC2)cc1`, the inhibition in the data set listed under Homo sapiens was determined as 3.85%.
On the same count and under the same terms, in the case of `Cc1cc(C(=O)Nc2ccc(Cl)c(F)c2)nn1Cc1cccc(N2CCN(C(=O)C3CC3)CC2)c1` it was 11.1%; in that of `Cc1cc(C(=O)Nc2cccc(OC(F)(F)F)c2)nn1Cc1cccc(N2CCN(C(=O)C3CC3)CC2)c1`, 3.1%.
Still for that read-out and setting: in the case of `Cc1cc(C(=O)Nc2ccc(OC(F)(F)F)cc2)nn1Cc1cccc(-c2ccc(C(C)(C)C)cc2)c1` it was 29.6%.
On the same count and under the same terms, in the case of `Cc1cc(C(=O)Nc2ccc(OC(F)(F)F)cc2)nn1Cc1cccc(N2CCOCC2)c1` it was 8.94%.
In turn, `Cc1cc(C(=O)Nc2ccc(OC(F)(F)F)cc2)nn1Cc1cccc(S(=O)(=O)N2CCOCC2)c1` registered an inhibition in the data set listed under Homo sapiens of 4.42%.
Turning to `Cc1cc(C(=O)Nc2ccc(OC(F)(F)F)cc2)nn1Cc1cccc(N2CCN(S(C)(=O)=O)CC2)c1`, in the data set filed under Homo sapiens, the inhibition was determined as 50.4%. Also, 1.06 µM corresponded to half-maximal inhibition in data set [1] (IC50).
The compound `Cc1cc(C(=O)Nc2ccc(OC(F)(F)F)cc2)nn1Cc1cccc(-c2ccc(S(C)(=O)=O)cc2)c1` gave an inhibition in the data set listed under Homo sapiens of 52.5%. This compound also returned an IC50 in data set [1] of 0.86 µM.
`Cc1cc(C(=O)Nc2ccccc2)nn1Cc1cccc(N2CCN(C(=O)C3CC3)CC2)c1`: the inhibition in the data set listed under Homo sapiens came out at 7.12%.
Same read-out and setting: in the case of `COc1ccc(NC(=O)c2cc(C)n(Cc3cccc(N4CCN(C(=O)C5CC5)CC4)c3)n2)cc1OC` it was 4.85%; in that of `Cc1cc(C(=O)Nc2ccc(OC(F)(F)F)cc2)nn1Cc1ccc(F)c(Br)c1`, 1.32%; in that of `Cc1cc(C(=O)Nc2ccc(OC(F)(F)F)cc2)nn1Cc1cccc(N2CCS(=O)(=O)CC2)c1`, 6.09%.
The same measure, in the same setting: in the case of `Cc1ccc(NC(=O)c2cc(C)n(Cc3cccc(N4CCN(C(=O)C5CC5)CC4)c3)n2)cc1F` it was 3.49%.
On to `CS(=O)(=O)C1CCN(c2cccc(Cn3nc(C(=O)Nc4ccc(OC(F)(F)F)cc4)cc3-c3ccccc3)c2)CC1`, for which, in the data set listed under Homo sapiens, the inhibition turned out to be 36.3%. Also, the IC50 in [1] was found to be 1.41 µM.
Regarding `C=C(C)[C@H]1Cc2c(ccc3c2O[C@@H]2COc4cc(OC)c(OC)cc4[C@@H]2C3=O)O1`, the inhibition in the data set listed under Homo sapiens was 71.8%.
Same read-out and setting: in the case of `Cc1cc(C(=O)Nc2ccc(OC(F)(F)F)cc2)nn1Cc1cccc(-c2ccccc2O)c1` it was 25.6%; in that of `COc1ccccc1-c1cccc(Cn2nc(C(=O)Nc3ccc(OC(F)(F)F)cc3)cc2C)c1`, 3.57%; in that of `COc1ccc(NC(=O)c2cc(C)n(Cc3cccc(N4CCN(C(=O)C5CC5)CC4)c3)n2)cc1`, 5.23%.
Still for that read-out and setting: in the case of `Cc1cc(C(=O)Nc2ccc(OC(F)(F)F)cc2)nn1Cc1cccnc1` it was 1.37%.
Compound `COc1cc(Cn2nc(C(=O)Nc3ccc(OC(F)(F)F)cc3)cc2C)cc(OC)c1` gave an inhibition in the data set filed under Homo sapiens of 2.05%.
Still for that read-out and setting: in the case of `Cc1cc(C(=O)Nc2ccc(OC(F)(F)F)cc2)nn1Cc1ccc2ccccc2c1` it was 4.6%; in that of `Cc1cn(Cc2cccc(N3CCC(S(C)(=O)=O)CC3)c2)nc1C(=O)Nc1ccc(OC(F)(F)F)cc1`, 9.43%.
In the data set listed under Homo sapiens, `Cc1cc(C(=O)Nc2ccc(OC(F)(F)F)cc2)nn1Cc1cccc(N2CCC(S(C)(=O)=O)CC2)c1` had an inhibition of 49.7%. The same compound displayed a half-inhibitory concentration (IC50) in [1] of 0.96 µM.
In the data set listed under Homo sapiens, `CS(=O)(=O)C1CCN(c2cccc(Cn3ccc(C(=O)Nc4ccc(OC(F)(F)F)cc4)n3)c2)CC1` had an inhibition of 26.6%.
With `Cc1cc(C(=O)Nc2ccc(OC(F)(F)F)cc2)nn1Cc1ccccc1`, in the data set listed under Homo sapiens, the inhibition came out at 1.03%.
Same read-out and setting: in the case of `Cc1cc(C(=O)Nc2ccc(OC(F)(F)F)cc2)nn1Cc1cccc(Br)c1` it was 1.54%; in that of `Cc1cc(C)cc(-c2cccc(Cn3nc(C(=O)Nc4ccc(OC(F)(F)F)cc4)cc3C)c2)c1`, 3.73%; in that of `Cc1ccc(Cn2nc(C(=O)Nc3ccc(OC(F)(F)F)cc3)cc2C)cc1`, 8.06%.
On to `Cc1ccc(NC(=O)c2cc(C)n(Cc3cccc(N4CCN(C(=O)C5CC5)CC4)c3)n2)cc1`, for which the inhibition in the data set filed under Homo sapiens worked out at 7.73%.
Same read-out and setting: in the case of `Cc1cc(C(=O)Nc2cccnc2)nn1Cc1cccc(N2CCN(C(=O)C3CC3)CC2)c1` it was 16.1%.
As for `CS(=O)(=O)C1CCN(c2cccc(Cn3nc(C(=O)Nc4ccc(OC(F)(F)F)cc4)c4c5nn(c6c5CCC6)c43)c2)CC1`, in the data set listed under Homo sapiens, the inhibition was determined as 29.2%. For the same compound, half-maximal inhibition in data set [1] (IC50) required 91.3 µM.
